Results: ChEMBL document CHEMBL4387717, “Structure guided drug design to develop kallikrein 5 inhibitors to treat Netherton syndrome” (Bioorg Med Chem Lett, 2019)
In brackets after ≈: the same amount, converted by molar mass.

Columns and labels:
Kallikrein-5 = target: T1, Kallikrein-5 (Homo sapiens, UniProt Q9Y337); assay: Inhibition of recombinant 6His-Q-FLAG tagged human KLK5 expressed in baculovirus infected Sf9 insect cells using (Tos-Gly-Pro-Arg)2[R110].2TFA as substrate measured at 30 secs interval for 5 mins by fluorescence intensity assay
T1 sequence (Q9Y337 whole entry): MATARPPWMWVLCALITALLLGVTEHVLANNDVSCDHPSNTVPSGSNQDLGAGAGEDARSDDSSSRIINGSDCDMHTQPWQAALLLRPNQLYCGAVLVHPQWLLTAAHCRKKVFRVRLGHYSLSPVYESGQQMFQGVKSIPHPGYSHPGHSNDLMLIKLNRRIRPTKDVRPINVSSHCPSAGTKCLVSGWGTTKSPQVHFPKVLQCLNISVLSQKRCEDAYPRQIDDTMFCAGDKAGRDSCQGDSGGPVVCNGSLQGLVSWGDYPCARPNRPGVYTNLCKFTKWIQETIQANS

Kallikrein-1 = Kallikrein-1 (Homo sapiens, UniProt P06870); assay: Inhibition of recombinant bovine enterokinase activated N-terminal His-tagged recombinant human KLK1 (19 to 262 residues) expressed in baculovirus infected Sf9 insect cells using 3',6'-bis(prolylphenylalanylarginylamino)3H-spiro(2-benzofuran-1,9'-xanthen)-3-one;TFA as substrate measured at 30 secs interval for 5 mins by fluorescence intensity assay
Chain of Kallikrein-1 (P06870 whole entry, the tested form may be a part): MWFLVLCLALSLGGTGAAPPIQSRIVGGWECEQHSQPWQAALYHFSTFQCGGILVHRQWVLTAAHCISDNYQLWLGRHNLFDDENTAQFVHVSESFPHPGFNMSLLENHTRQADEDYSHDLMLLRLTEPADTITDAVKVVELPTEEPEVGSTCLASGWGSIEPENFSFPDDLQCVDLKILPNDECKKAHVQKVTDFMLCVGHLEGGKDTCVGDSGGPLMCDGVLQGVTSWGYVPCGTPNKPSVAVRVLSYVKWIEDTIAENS

[1] = Half life in pH 4 to 8 buffer at 0.05 mg/ml over 24 hrs; assay type: physicochemical
[2] = Absorption property in methanol assessed as maximum absorption wavelength by UV-spectra analysis; assay type: physicochemical
[3] = Solubility of the compound in water at 24 hrs; assay type: physicochemical
[4] = Solubility of the compound in pH 4 Britton-Robinson buffer at 24 hrs; assay type: physicochemical; details: buffer, pH 4, 24 h
[5] = Absorption property in methanol assessed as molar extinction co-efficient by UV-spectra analysis; assay type: physicochemical
[6] = Half life in pH 8 buffer at 0.05 mg/ml under H2O2-induced oxidative condition over 24 hrs; assay type: physicochemical; details: buffer with H2O2, pH 8
[7] = Half life in pH 6 buffer at 0.05 mg/ml under H2O2-induced oxidative condition over 24 hrs; assay type: physicochemical; details: buffer with H2O2, pH 6
[8] = Solubility of the compound in pH 6 Britton-Robinson buffer at 24 hrs; assay type: physicochemical; details: buffer, pH 6, 24 h
Homo sapiens = species on record: Homo sapiens; assay: Selectivity index, ratio of compound effect for inhibition of recombinant bovine enterokinase activated N-terminal His-tagged recombinant human KLK1 (19 to 262 residues) expressed in baculovirus infected Sf9 insect cells to compound effect for inhibition of recombinant 6His-Q-FLAG tagged human KLK5 expressed in baculovirus infected insect Sf9 cells

Row | Structure (SMILES) | IC50 (Kallikrein-5; read-out: pIC50 (converted)) | IC50 (Kallikrein-1) | other results
1 | N=C(N)c1ccc(NCc2nc(-c3ccccc3)c[nH]2)cc1OCC(=O)NC1CC1 | 0.0794 µM | 15.8 µM | –
2 | N=C(N)c1ccc(NCc2nc(-c3ccccc3)c[nH]2)cc1 | 6.31 µM | 25.1 µM | –
3 | N=C(N)c1ccc(NCc2nc(-c3ccccc3)c[nH]2)cc1OCC(=O)NCC1CC1 | 0.0398 µM | > 6.31 µM | half-life at 0.05 mg/ml [1]: > 1000 h; Activity [2]: > 290 nm; solubility at 24 h [3]: 3000 µg/mL (≈ 7.17 mM); solubility [4]: Soluble; Activity [5]: > 1000 a.u.L/mol.cm; half-life at 0.05 mg/ml [6]: 14 h; half-life at 0.05 mg/ml [7]: 26.7 h; solubility [8]: Soluble
4 | Cn1ccnc1CNc1ccc(C(=N)N)cc1 | 126 µM | 398 µM | –
5 | N=C(N)c1ccc(NCc2nc(-c3ccccc3)c[nH]2)cc1OCc1ccccn1 | 0.126 µM | 20 µM | –
6 | N=C(N)c1ccc(NCc2nc(-c3ccccc3)c[nH]2)cc1OCc1ccc(Cl)cc1 | 0.0631 µM | > 5.01 µM | –
7 | N=C(N)c1ccc(NCc2nc(-c3ccccc3)c[nH]2)cc1OCc1ccccc1Cl | 0.0316 µM | > 2.51 µM | –
8 | CC(C)COc1cc(NCc2nc(-c3ccccc3)c[nH]2)ccc1C(=N)N | 6.31 µM | 79.4 µM | –
9 | Cn1c(CNc2ccc(C(=N)N)cc2)nc2ccccc21 | 15.8 µM | 6.31 µM | –
10 | N=C(N)c1ccc(NCc2nc(-c3ccccc3)c[nH]2)cc1OCC(N)=O | 0.794 µM | > 50.1 µM | –
11 | N=C(N)c1ccc(NCc2nc3cc(Cl)ccc3[nH]2)cc1 | 10 µM | 2 µM | –
12 | N=C(N)c1ccc(NCc2nc3ccccc3[nH]2)cc1 | 20 µM | 39.8 µM | –
13 | Cc1ccc2[nH]c(CNc3ccc(C(=N)N)cc3)nc2c1 | 10 µM | 6.31 µM | –
14 | N=C(N)c1ccc(NCc2ncc[nH]2)cc1 | 25.1 µM | 63.1 µM | –
15 | N=C(N)c1ccc(NCc2nc(-c3ccccc3)c[nH]2)cc1OCCO | 3.98 µM | 79.4 µM | –
16 | CNC(=O)COc1cc(NCc2nc(-c3ccccc3)c[nH]2)ccc1C(=N)N | 0.251 µM | 31.6 µM | –
17 | COc1ccc2[nH]c(CNc3ccc(C(=N)N)cc3)nc2c1 | 12.6 µM | 31.6 µM | –
18 | N=C(N)c1ccc(NCc2nc(-c3ccccc3)c[nH]2)cc1OCC1CC1 | 0.794 µM | 50.1 µM | Selectivity Index (Homo sapiens): 60
19 | N=C(N)c1ccc(NCc2nc(-c3ccccc3)c[nH]2)cc1OCc1ncco1 | 0.1 µM | 12.6 µM | –
20 | N=C(N)c1ccc(NCc2nc(-c3ccccc3)c[nH]2)cc1OCc1ccccc1 | 0.0794 µM | 25.1 µM | IC50 (Kallikrein-5; read-out: IC50): < 0.01 µM; Selectivity Index (Homo sapiens): 300
21 | CN(C)CCOc1cc(NCc2nc(-c3ccccc3)c[nH]2)ccc1C(=N)N | 15.8 µM | 79.4 µM | –
22 | N=C(N)c1ccc(NCc2nc(-c3ccccc3)c[nH]2)cc1OCc1ncccn1 | 0.0794 µM | 39.8 µM | –
23 | N=C(N)c1ccc(NCc2nc(-c3ccccc3)c[nH]2)cc1OCCC1CC1 | 0.2 µM | 50.1 µM | Selectivity Index (Homo sapiens): 250
24 | N=C(N)c1ccc(NCc2nc(-c3ccccc3)c[nH]2)cc1OCc1cccc(Cl)c1 | 0.0794 µM | > 5.01 µM | –
25 | CCOc1cc(NCc2nc(-c3ccccc3)c[nH]2)ccc1C(=N)N | 0.316 µM | 6.31 µM | Selectivity Index (Homo sapiens): 20
